Measured values as given in patent US9718879B2, “Methods of treating pain by inhibition of VGF activity” (IMPERIAL INNOVATIONS LTD., priority 2012, dated 2017).
“Also recorded” adds a separate entry of the source. No end group written: not given here.

Experiments:
[1] = system: chemokines Ccl11 and Cxcl9 in microglia; assay: PCR array of chemokine expression in microglia upon TLQP-21 stimulation; format: cell-based
[2] = system: cultured bone marrow-derived macrophages; assay: TLQP-21-elicited intracellular Ca2+ increase in cultured macrophages (Fluo-4); format: cell-based; conditions: for increase in intracellular Ca2+ levels: 100 nM peptide, cultured macrophages, Fluo-4
Method: (§1) Cell images show the Fluo-4 fluorescence associated with different time points during the recording.
(§2) A possible explanation for the absence of a Ca2+ response from a second application of TLQP-21 is that there is a biological de-sensitisation occurring such as phosphorylation of the receptor. It is also possible that this could be due to depletion of Ca2+ in internal stores such as ER, however, this is less likely because the de-sensitisation occurs even with sufficient time (2 hours) to recover and replenish the Ca2+, and ATP treatment gave an increase in intracellular Ca2+ levels. Actually this de-sensitisation by TLQP-21 has also been observed in cerebellar granule cells.
These peptides were either commercially sourced or provided by Neusentis/Pfizer. The effects of VGF peptides on sensory neurons was analysed using whole-cell current-clamp recordings on cultured DRG neurons. Responses of cells to depolarising current pulses will be analysed before and after superfusion of peptides and their efficacy and potency established. The nociceptive phenotype of the cells was confirmed by superfusing capsaicin to the cells at the end of the recordings, and analysing the action potential and current threshold of the cells. Based on our pilot data with LQEQ-19, we expected that some of these peptides will increase the activity of nociceptive neurons. The activation of microglia and macrophage was studied on two parameters, intracellular Ca^2+ increase and P38 MAP kinase phosphorylation. The phosphorylation levels of P38 MAP kinase was investigated as shown before^20. Once we identified peptides capable of activating sensory neurons and/or microglia/macrophage, confirmed the specific effects using scrambled peptides.

paw withdrawal threshold = assay: Intraplantar (hind paw) injection of peptide-treated macrophages, Von Frey paw withdrawal threshold; format: in vivo, rat
Method: FIG. 6A-C Intraplantar injection of macrophages stimulated with TLQP-21 can evoke mechanical hypersensitivity, and anti-gC1qR antibody reverses mechanical hypersensitivity in partial sciatic nerve ligation (PSNL) model. a, 80,000 macrophages treated with 100 nM TLQP-21 (closed circle) and scrambled TLQP-21 (open circle) for 24 hours have been intraplantarly injected into 3 weeks old male rats. Mechanical sensitivity was examined by electrical Von Frey test. […] C, Time course of paw withdrawal thresholds to Von Frey mechanical stimulation on an left hind paw of PSNL model rats. The left sciatic nerve was exposed, tied with non-absorbable silk thread, and wrapped loosely with a oxidized regenerated cellulose previously soaked in 200 μl of PBS (open triangle) or PBS containing 25 μg of anti-gC1qR (closed circle) or control antibodies (open circle). […] Mean±s.e.m. *P<0.05 vs controls.
Macrophages were treated with either 100 nM TLQP-21 or 100 nM scrambled TLQP-21 for 24 hours in culture. Following wash with PBS, macrophages (35,000 cells in 50 μl) were injected into the left hind paw. Ipsilateral paw withdrawal latency to Von Frey mechanical stimulation was measured at 1, 2, and 3 days after injection (n=9).
We hypothesised that macrophages stimulated by TLQP-21 affects sensory neurons and alter the mechanical sensitivity. We tested this hypothesis by measuring paw withdrawal thresholds in normal rats after hind paw injection of cultured macrophages that had been pre-treated with either TLQP-21 or ScrTLQP-21 for 24 hours. […] This effect lasted for 48 hours after injection. […] We then examined if in vivo application of the neutralising gC1qR antibody can prevent or delay development of neuropathic pain in PSNL model rats. The gC1qR antibody was applied to the site next to nerve ligation, in a cellulose membrane soaked form.

gC1qR = target: T1, gC1qR (Rattus norvegicus, UniProt O35796); assay: Receptor identification by chemical cross-linking / monomeric avidin column and LC-MS/MS; format: binding; conditions: rat brain / spinal cord membrane fractions; ~30 kDa band identified by LC-MS/MS
T1 construct: from tissue; host or cells: membrane fractions of rat brain (P4) and of 6 weeks old rat brain and spinal cord
T1 sequence (O35796 72-279): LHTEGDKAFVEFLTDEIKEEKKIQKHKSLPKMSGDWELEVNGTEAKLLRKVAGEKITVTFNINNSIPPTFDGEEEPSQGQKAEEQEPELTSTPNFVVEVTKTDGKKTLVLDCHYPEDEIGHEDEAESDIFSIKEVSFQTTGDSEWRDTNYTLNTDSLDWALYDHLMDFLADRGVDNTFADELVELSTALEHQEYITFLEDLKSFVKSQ
Method: FIG. 3A-F gC1qR is the receptor for TLQP-21. a, Biotinylated TLQP-21 was conjugated to Sulfo-EMCS cross-linker, and applied to membrane fractions of 6 weeks old rat brain and spinal cord for cross-linking (boric acid buffer, pH 8, with 150 mM NaCl, 3 hours incubation on ice). The reaction was terminated using 50 mM Tris buffer, and samples were ethanol precipitated and resolved using Tricine-PAGE and visualised by Western blot analysis by streptavidin-horse radish peroxidase. […] C, The ˜30 kDa band was analysed by LC-MS/MS Orbitrap following trypsinisation.
Ccl11 has been linked to inflammation^23, while Cxcl9 is known as a natural antagonist to Ccl11 receptor CCR3^24. […] The membrane fractions of rat brain was incubated with the crosslinker-conjugated TLQP-21, and analysed by Tricine-PAGE and Western blotting using Streptavidin-HRP for the biotin tag on TLQP-21. […] The membrane fraction of rat brain was applied to a TLQP-21 attached column, and the elutions were analysed on SDS-PAGE and silver staining for direct comparison to the negative control (without TLQP-21). […] The ˜30 kDa bands from both gels were cut out, trypsinised and analysed using LC-MS/MS Orbitrap. […]
To elucidate the identity of the ˜30 kDa protein, which were apparent in two different experiments, the protein band from the monomeric avidin experiment was analysed using LC-MS/MS Orbitrap. […]

cultured brain microglia = assay: Intracellular Ca2+ increase in cultured brain microglia; format: cell-based, rat; conditions: 100 nM
Method: as §1, §2
Ccl11 has been linked to inflammation^23, while Cxcl9 is known as a natural antagonist to Ccl11 receptor CCR3^24. We then used Sulfo-EMCS-conjugated TLQP-21 to purify and identify receptor(s) for TLQP-21. […] The membrane fractions of rat brain was incubated with the crosslinker-conjugated TLQP-21, and analysed by Tricine-PAGE and Western blotting using Streptavidin-HRP for the biotin tag on TLQP-21. […] The membrane fraction of rat brain was applied to a TLQP-21 attached column, and the elutions were analysed on SDS-PAGE and silver staining for direct comparison to the negative control (without TLQP-21). […] The ˜30 kDa bands from both gels were cut out, trypsinised and analysed using LC-MS/MS Orbitrap.

[3] = system: ipsilateral hind limb mechanical sensitivity; assay: Intraplantar injection of LQEQ-19, sensitivity to mechanical stimuli; format: in vivo, rat; conditions: 275 microgram
Text: (§3) On the other hand, another VGF-derived peptide LQEQ-19 seems to have a direct role on DRG neurons. […] In summary, there are at least three active VGF peptides involved in pain pathways, i.e., TLQP-62, TLQP-21 and LQEQ-19, and four types of cells, namely, spinal microglia, macrophage, nociceptive DRG neurons, and dorsal horn neurons, which respond to these peptides. In this project we will focus on the putative role of VGF peptides in regulating the activity/excitability of DRG neurons and the novel VGF-induced signaling pathway in microglia/macrophage.

[4] = system: nociceptors (C-fibre component of compound action potentials in dorsal roots); assay: Compound action potential recordings in dorsal roots after application to DRG; conditions: application of LQEQ-19 to DRG, in vitro
Text: (A) Typical average trace of 12 compound action potential recordings. The record was divided into 3 components according to the conduction velocities of Aβ fibres (6.2 m/s-2.1 m/s), Ad fibres (2.1 m/s-0.8 m/s) and C fibres (0.8 m/s-0.1 m/s) fibres. (B) Maximum amplitudes of Aβ, Ad and C components of compound action potentials. (C) Area under the curve of Aβ, Ad and C compound action potential. Bold line on the X axis indicates LQEQ-19 application
as §3

[5] = system: p38 MAP kinase in spinal microglia; conditions: mice injected intrathecally; cited from earlier work
[6] = system: p38 MAP kinase in spinal microglia and BV-2 microglial cell line; conditions: cited from earlier work
pain behaviour = conditions: in vivo; cited from earlier work
spinal cord slices = conditions: cited from earlier work
[7] = system: mechanical and cold sensitivity; conditions: intrathecal application to rats; cited from earlier work
hippocampal neurons = conditions: cited from earlier work

Thr-Leu-Gln-Pro-Pro-Ala-Ser-Ser-Arg-Arg-Arg-His-Phe-His-His-Ala-Leu-Pro-Pro-Ala-Arg [TLQP-21]
Ccl11 upregulated [1]: 2.78 fold
Cxcl9 downregulated [1]: 2.28 fold
de-sensitisation to subsequent TLQP-21 stimulation ([2]; 100 nM TLQP-21, macrophages, ATP response not desensitised): densensitises macrophage to further TLQP-21 stimulation; also recorded: induced de-sensitisation to subsequent TLQP-21 treatments
increase in intracellular Ca2+ levels [2]: elicits an increase in intracellular Ca2+ levels; also recorded: drives an increase in intracellular Ca2+; also recorded: causes intracellular Ca^2+ increase; also recorded: caused transient increase in intracellular Ca2+ levels
intracellular Ca2+ increase when extracellular Ca2+ is depleted ([2]; macrophages, extracellular Ca2+ depleted): still observed
duration of the effect on paw withdrawal threshold after injection (paw withdrawal threshold; injection of macrophages stimulated by TLQP-21): 48 h
tactile allodynia (paw withdrawal threshold; macrophages treated with 100 nM peptide 24 hours, 35,000 cells in 50 μl into left hind paw, 1, 2, 3 days, n=9): produced tactile allodynia
paw withdrawal threshold (paw withdrawal threshold; macrophages treated with 100 nM peptide for 24 hours, 80,000 cells injected intraplantarly, Von Frey): caused reduction of paw withdrawal thresholds at 24 and 48 hours after injection; also recorded: decreased markedly
binding to the receptor gC1qR (gC1qR): co-purified with TLQP-21; also recorded: binds to the receptor gC1qR
increase in intracellular Ca2+ (cultured brain microglia): causes an increase in intracellular Ca2+; also recorded: responded to TLQP-21 similarly to macrophages

LQEQEELENYIEHVLLHRP [VGF-derived peptide]
time of development of hypersensitivity after injection [3]: 10 min
hypersensitivity to mechanical stimuli ([3]; ipsilateral hind limb, p≦0.001 vs vehicle): associated with a hypersensitivity to mechanical stimuli; also recorded: causes a mechanical hypersensitivity in vivo
C-fibre component of compound action potentials (amplitude, area under the curve); sensitisation of nociceptors [4]: sensitises nociceptors in vitro; also recorded: significantly increases both the amplitude and the area under the curve
phosphorylated p38 MAP kinase in spinal microglia [5]: increase of phosphorylated p38 MAP kinase
p38 MAP kinase phosphorylation [6]: causes P38 MAP kinase phosphorylation; also recorded: induces p38 MAP kinase phosphorylation
pain behaviour in the formalin test (pain behaviour): enhances pain behaviour

cross-linker-conjugated TLQP-21: TLQP-21 with N-terminal biotin and extra C-terminal cysteine, conjugated to Sulfo-EMCS cross-linker (TLQPPASSRRRHFHHALPPARC; cyclised or stapled)
increase in intracellular Ca2+ levels [2]: able to induce an increase in intracellular Ca2+ levels similar to the wild type TLQP-21

B1: Thr-Leu-Gln-Pro-Pro-Ala-Ser-Ser-Arg-Arg-Arg-His-Phe-His-His-Ala-Leu-Pro-Pro-Ala-Arg-His-His-Pro-Asp-Leu-Glu-Ala-Gln-Ala-Arg-Arg-Ala-Gln-Glu-Glu-Ala-Asp-Ala-Glu-Glu-Arg-Arg-Leu-Gln-Glu-Gln-Glu-Glu-Leu- … (peptide)
chain: TLQPPASSRRRHFHHALPPARHHPDLEAQARRAQEEADAEERRLQEQEELENYIEHVLLHRP
modifications: TLQP-62 peptide from VGF
notes: VGF-derived peptide
frequency of spontaneous excitatory post synaptic currents (spinal cord slices): increase in the frequency of spontaneous excitatory post synaptic currents
pain behaviour (mechanical and cold allodynia) [7]: induces pain behaviour (cold and mechanical hypersensitivity); also recorded: long-lasting mechanical and cold behavioural allodynia
synaptic activity (hippocampal neurons): increase synaptic activity
